17 compounds from patent EP4813463A2, “TYK2 INHIBITORS AND COMPOSITIONS AND METHODS THEREOF” (Lynk Pharmaceuticals Co. Ltd., priority 2023, dated 2024) can be followed below.

pIC50: −log10 of the molar value.

For one assay, the target named is T1, TYK2-JH2 domain (Homo sapiens, UniProt P29597).
T1 construct: JAK1-JH2 domain or TYK2-JH2 domain enzyme in assay buffer
As to the kind of experiment: Binding activity test for JH2 domain of TYK2 (Tb-antibody/tracer FRET). Conditions: for pIC50: JH2 domain enzyme, 60 min at 25°C, then 4°C overnight, read-out: TYK2 JH2 Binding IC50; for JAK1/TYK2 selectivity: ratio of JAK1 JH2 to TYK2 JH2 binding IC50. The method in brief:
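IC50 values (nM) come from TR-FRET readings taken after a 25°C incubation followed by overnight at 4°C. Each well held JH2 domain protein, Tb-antibody, tracer and test compound titrated in 11 threefold steps, with DMSO high and low controls.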

In a further assay the target is T2, JAK1-JH2 domain (Homo sapiens, UniProt P23458).
T2 construct: JAK1-JH2 domain or TYK2-JH2 domain enzyme in assay buffer
Briefly: Binding activity test for JH2 domain of JAK1 (Tb-antibody/tracer FRET). Conditions: JH2 domain enzyme; 60 min at 25°C, then 4°C overnight; read-out: JAK1 JH2 Binding IC50. Here is the method:
Binding Activity test for JH2 domain of JAK1 and TYK2 […] Add 8μL/well in echo source plate, echo will add 75nL/well with 3-fold serial dilution for 11 points in assay plate. 75nL DMSO for high control and low control. […] For low control, add 5μL/well assay buffer. And then spin down at 1000rpm and centrifuge for 30 seconds. After enzyme system prepared, add 5μL of Tb-antibody solution into each well of assay plate. Spin down at 1000 rpm and centrifuge for 30sec. After Tb-antibody added, also add 5μL of tracer into the assay plate. Spin down at 1000rpm and centrifuge for 30sec. Incubate for […] at 25°C firstly and then continue to incubate the plate at 4°C overnight. Read by envision in FRET mode. The Luminescence value was recorded by a multi-label reader Envision (PerkinElmer). […] Table 2. IC50 on JH2 domain activity (nM)

Assay [1] has as its system Ba/F3-FL-TYK2-P760L cells. As to the kind of experiment: Anti-proliferative assay in engineered Ba/F3 cells (Cell-Titer Glo, 72 h). The format is cell-based. The settings on record: Mus musculus, BaF3, 72 h, 72 h compound treatment, concentration that causes 50% growth inhibition, read-out: Baf3-FL-T2P760L. The method in brief:
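IC50 from luminescent ATP viability after 72 h compound exposure (37 °C, 5% CO2), % inhibition normalised to DMSO-treated cells minus medium blank. IL-3-free Ba/F3-FL-TYK2-P760L (Tel-JAK fusion) cells in 10% FBS RPMI-1640 received 9 three-fold doses, top 20 µM, 0.1% DMSO.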

T2 sequence (P23458 583-855 limits assumed): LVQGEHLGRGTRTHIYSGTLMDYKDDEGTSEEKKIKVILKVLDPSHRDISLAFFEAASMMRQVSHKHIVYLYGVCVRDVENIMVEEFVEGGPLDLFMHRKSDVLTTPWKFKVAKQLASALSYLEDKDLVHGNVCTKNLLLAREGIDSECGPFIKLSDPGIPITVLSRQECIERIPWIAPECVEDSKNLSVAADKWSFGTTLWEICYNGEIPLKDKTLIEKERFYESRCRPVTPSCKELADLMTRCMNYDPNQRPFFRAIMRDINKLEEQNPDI
T1 sequence (P29597 589-875 limits assumed): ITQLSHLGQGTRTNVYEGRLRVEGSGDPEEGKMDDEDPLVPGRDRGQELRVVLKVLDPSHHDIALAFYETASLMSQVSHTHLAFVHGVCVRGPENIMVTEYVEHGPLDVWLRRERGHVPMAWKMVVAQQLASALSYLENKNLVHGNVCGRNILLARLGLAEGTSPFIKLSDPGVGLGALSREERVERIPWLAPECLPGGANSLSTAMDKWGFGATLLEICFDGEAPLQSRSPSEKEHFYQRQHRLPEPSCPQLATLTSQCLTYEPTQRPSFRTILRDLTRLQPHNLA

In the case of `CCn1nc(Nc2cc(NC(=O)C3CC3)ncc2C(=O)OC)c2c(OC)c(C(OC)C(F)(F)F)ccc21` (single isomer, unassigned) [Example 66A, Methyl (R*)-6-(cyclopropanecarboxamido)-4-((1-ethyl-4-methoxy-5-(2,2,2-trifluoro-1-methoxyethyl)-1H-indazol-3-yl)amino)nicotinate], at TYK2-JH2 domain, the pIC50 was 8.55 and the JAK1/TYK2 selectivity is 106.23. In addition, the pIC50 at JAK1-JH2 domain is less than 6.53.

Regarding `COC(=O)c1cnc(NC(=O)C2CC2)cc1Nc1nsc2ccc(C(OC)C(F)(F)F)c(OC)c12` (single isomer, unassigned) [Example 67A, Methyl (S*)-6-(cyclopropanecarboxamido)-4-((4-methoxy-5-(2,2,2-trifluoro-1-methoxyethyl)benzo[d]isothiazol-3-yl)amino)nicotinate], at TYK2-JH2 domain, the pIC50 is 9.68 and the JAK1/TYK2 selectivity worked out at 88.72. Besides, the pIC50 at JAK1-JH2 domain was 7.73.

With `COC(=O)c1cnc(NC(=O)C2CC2)cc1Nc1nsc2ccc(C(OC)C(F)(F)F)c(OC)c12` (single isomer, unassigned) [Example 67B, Methyl (R*)-6-(cyclopropanecarboxamido)-4-((4-methoxy-5-(2,2,2-trifluoro-1-methoxyethyl)benzo[d]isothiazol-3-yl)amino)nicotinate], on TYK2-JH2 domain, the pIC50 was 9.49 and the JAK1/TYK2 selectivity is 372.97. Also, the pIC50 on JAK1-JH2 domain was 6.92.

For `CCn1nc(Nc2cc(NC(=O)C3CC3)ncc2C(=O)OC)c2c(OC)c(C(O)C(F)(F)F)ccc21` (single isomer, unassigned) [Example 70B, Methyl (R*)-6-(cyclopropanecarboxamido)-4-((1-ethyl-4-methoxy-5-(2,2,2-trifluoro-1-hydroxyethyl)-1H-indazol-3-yl)amino)nicotinate], at TYK2-JH2 domain, the pIC50 was 8.67 and the JAK1/TYK2 selectivity was 22.26. For the same compound, the pIC50 on JAK1-JH2 domain is 7.33.

Consider `[2H]C([2H])([2H])CC(=O)c1cnc(NC(=O)C2CC2)cc1Nc1nn(C)c2ccc([C@@H](O)C(F)(F)F)c(OC)c12` [Example 54B, (R)-N-(4-((4-methoxy-1-methyl-5-(2,2,2-trifluoro-1-hydroxyethyl)-1H-indazol-3-yl)amino)-5-(propanoyl-3,3,3-d3)pyridin-2-yl)cyclopropanecarboxamide], for which the pIC50 on TYK2-JH2 domain is 9.36; on JAK1-JH2 domain, 8.15. Moreover, the JAK1/TYK2 selectivity on TYK2-JH2 domain worked out at 16.36.

For the compound `[2H]C([2H])([2H])n1nc(Nc2cc(NC(=O)C3CC3)ncc2C(=O)OC)c2c(OC)c(C(OC)C(F)F)ccc21` (centres unmarked) [Example 69, Methyl 6-(cyclopropanecarboxamido)-4-((5-(2,2-difluoro-1-methoxyethyl)-4-methoxy-1-(methyl-d3)-1H-indazol-3-yl)amino)nicotinate], at TYK2-JH2 domain, the pIC50 was 9.89 and the JAK1/TYK2 selectivity came to 114.31. In addition, at JAK1-JH2 domain, the pIC50 was 7.83.

As for `CCONC(=O)c1cnc(NC(=O)C2CC2)cc1Nc1nn(C)c2ccc(C(OC)C(F)(F)F)c(OC)c12` (centres unmarked) [Example 75, 6-(Cyclopropanecarboxamido)-N-ethoxy-4-((4-methoxy-1-methyl-5-(2,2,2-trifluoro-1-methoxyethyl)-1H-indazol-3-yl)amino)nicotinamide], at TYK2-JH2 domain, the pIC50 was 10.05 and the JAK1/TYK2 selectivity was 274.63. Further, the pIC50 at JAK1-JH2 domain was 7.61.

For `CCC(=O)c1cnc(NC(=O)C2CC2)nc1Nc1cccc(-c2cnn(C)n2)c1OC` [Example 158, N-(4-((2-methoxy-3-(2-methyl-2H-1,2,3-triazol-4-yl)phenyl)amino)-5-propionylpyrimidin-2-yl)cyclopropanecarboxamide], the pIC50 was 9.30 on TYK2-JH2 domain and 7.16 in assay [1].

On to `COC(=O)c1cnc(NC(=O)C2CC2)cc1Nc1nn(C)c2ccc(C3COCCO3)c(OC)c12` (centres unmarked) [Example 160, Methyl 4-((5-(1,4-dioxan-2-yl)-4-methoxy-1-methyl-1H-indazol-3-yl)amino)-6-(cyclopropanecarboxamido)nicotinate], for which the pIC50 at TYK2-JH2 domain is 9.15; in assay [1], 6.92.

With `COC(=O)c1cnc(NC(=O)C2CC2)cc1Nc1nn(C)c2ccc(C3(C(F)(F)F)CC3)c(OC)c12` [Example 161, Methyl 6-(cyclopropanecarboxamido)-4-((4-methoxy-1-methyl-5-(1-(trifluoromethyl)cyclopropyl)-1H-indazol-3-yl)amino)nicotinate], the pIC50 was 9.25 on TYK2-JH2 domain and 7.13 in assay [1].

Take `COC(=O)c1cnc(NC(=O)C2CC2)cc1Nc1nn(C)c2ccc(C3(C#N)CC3)c(OC)c12` [Example 162, Methyl 4-((5-(1-cyanocyclopropyl)-4-methoxy-1-methyl-1H-indazol-3-yl)amino)-6-(cyclopropanecarboxamido)nicotinate]: the results for the pIC50 (at TYK2-JH2 domain; in assay [1]) were 9.58 and 7.58, respectively.

`COC(=O)c1cnc(NC(=O)C2CC2)cc1Nc1nn(C(F)(F)F)c2ccc(C(OC)C(F)(F)F)c(OC)c12` (centres unmarked) [Example 163, Methyl 6-(cyclopropanecarboxamido)-4-((4-methoxy-5-(2,2,2-trifluoro-1-methoxyethyl)-1-(trifluoromethyl)-1H-indazol-3-yl)amino)nicotinate]: the results for the pIC50 (at TYK2-JH2 domain; in assay [1]) were 9.31 and 7.25, respectively.

For `COC(=O)c1cnc(NC(=O)C2CC2)cc1Nc1nn(C)c2ccc(CO)c(OC)c12` [Example 164, Methyl 6-(cyclopropanecarboxamido)-4-((5-(hydroxymethyl)-4-methoxy-1-methyl-1H-indazol-3-yl)amino)nicotinate], the pIC50 is 9.32 on TYK2-JH2 domain and 7.30 in assay [1].

Consider `COC(=O)c1cnc(NC(=O)C2CC2)cc1Nc1nn(C)c2ccc(C(OC)C(C)OC)c(OC)c12` (centres unmarked) [Example 165, Methyl 6-(cyclopropanecarboxamido)-4-((5-(1,2-dimethoxypropyl)-4-methoxy-1-methyl-1H-indazol-3-yl)amino)nicotinate], for which the pIC50 was 8.57 at TYK2-JH2 domain and 6.55 in assay [1].

Take `COC(=O)c1cnc(NC(=O)C2CC2)cc1Nc1nn(C)c2ccc([C@H](OC)C(C)OC)c(OC)c12` (stereo partly drawn) [Example 166, Methyl 6-(cyclopropanecarboxamido)-4-((5-((1S)-1,2-dimethoxypropyl)-4-methoxy-1-methyl-1H-indazol-3-yl)amino)nicotinate]: the pIC50 was 8.96 on TYK2-JH2 domain and 6.95 in assay [1].

For the compound `CCC(F)(F)c1cnc(NC(=O)C2CC2)cc1Nc1nccc2c1N(C)C(C)c1nn(C)nc1-2` (centres unmarked) [Example 178, N-(5-(1,1-Difluoropropyl)-4-((2,4,5-trimethyl-4,5-dihydro-2H-[1,2,3]triazolo[4,5-c][1,7]naphthyridin-6-yl)amino)pyridin-2-yl)cyclopropanecarboxamide], the pIC50 is 8.50 at TYK2-JH2 domain and 7.46 in assay [1].

On to `COC(=O)c1cnc2cc1Nc1nn(c3ccc(C(OC)C(F)(F)F)c(OC)c13)CCOCc1nc(ccc1F)N2` (centres unmarked) [Example 179, Methyl 12-fluoro-23-methoxy-22-(2,2,2-trifluoro-1-methoxyethyl)-15-oxa-2,6,8,18,25,26-hexaazapentacyclo[16.6.1.1^{3,7}.1^{9,13}.0^{19,24}]heptacosa-1(25),3(27),4,6,9,11,13(26),19,21,23-decaene-4-carboxylate], for which the figures for the pIC50 (on TYK2-JH2 domain; in assay [1]) were 9.32 and 7.51, respectively.
